Molecules are shown by their SMILES. Some results are limits rather than exact numbers.

For one experiment, the target named is JAK2 (Homo sapiens, UniProt O60674). The experiment can be described thus: JAK2 Inhibition Assay. The settings on record: JAK-2 enzyme, 15 μM poly(Glu)4Tyr, 12 μM ATP. Type of experiment: biochemical. In a few lines: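 Radiometric kinase assay with 1 nM JAK2 in pH 7.4 HEPES buffer (10 mM MgCl2, 1 mM DTT, 0.01% BSA), final 15 μM poly(Glu)4Tyr and 12 μM [33P]-ATP. Run 20 min at 25 °C, stopped with TCA; 33P incorporation captured on glass-fibre filters and read by scintillation counting.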
JAK2, sequence (O60674 whole entry): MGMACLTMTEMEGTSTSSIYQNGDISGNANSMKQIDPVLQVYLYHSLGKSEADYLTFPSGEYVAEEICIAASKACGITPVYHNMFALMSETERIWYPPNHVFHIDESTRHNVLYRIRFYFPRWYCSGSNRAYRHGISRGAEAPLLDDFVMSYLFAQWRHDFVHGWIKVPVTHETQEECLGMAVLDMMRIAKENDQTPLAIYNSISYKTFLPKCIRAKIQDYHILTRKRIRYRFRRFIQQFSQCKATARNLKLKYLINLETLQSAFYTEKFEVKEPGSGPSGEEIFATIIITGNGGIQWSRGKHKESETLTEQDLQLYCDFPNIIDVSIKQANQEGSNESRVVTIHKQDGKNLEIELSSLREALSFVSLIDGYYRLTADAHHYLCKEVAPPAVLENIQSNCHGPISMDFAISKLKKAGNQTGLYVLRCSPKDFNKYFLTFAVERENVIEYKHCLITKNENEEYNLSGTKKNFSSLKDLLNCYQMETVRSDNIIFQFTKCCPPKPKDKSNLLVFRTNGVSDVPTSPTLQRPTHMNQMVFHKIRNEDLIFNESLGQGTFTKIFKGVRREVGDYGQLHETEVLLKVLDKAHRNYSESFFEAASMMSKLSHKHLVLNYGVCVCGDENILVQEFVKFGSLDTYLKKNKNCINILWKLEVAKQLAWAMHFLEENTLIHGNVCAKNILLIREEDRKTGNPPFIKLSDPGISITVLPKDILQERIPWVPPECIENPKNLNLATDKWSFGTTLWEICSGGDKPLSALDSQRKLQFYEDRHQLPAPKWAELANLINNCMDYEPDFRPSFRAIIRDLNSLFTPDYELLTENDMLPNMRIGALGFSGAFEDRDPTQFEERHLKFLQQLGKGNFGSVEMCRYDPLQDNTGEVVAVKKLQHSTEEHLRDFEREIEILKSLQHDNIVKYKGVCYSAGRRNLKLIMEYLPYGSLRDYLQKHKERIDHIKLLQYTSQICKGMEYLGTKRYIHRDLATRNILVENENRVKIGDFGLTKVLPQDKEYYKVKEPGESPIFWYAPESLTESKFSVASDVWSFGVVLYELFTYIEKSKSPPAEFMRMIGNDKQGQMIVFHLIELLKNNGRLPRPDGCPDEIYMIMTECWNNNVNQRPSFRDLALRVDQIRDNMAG

A further experiment has as its target T1, JAK3 (Homo sapiens, UniProt P52333).
T1 sequence (P52333 1-1124): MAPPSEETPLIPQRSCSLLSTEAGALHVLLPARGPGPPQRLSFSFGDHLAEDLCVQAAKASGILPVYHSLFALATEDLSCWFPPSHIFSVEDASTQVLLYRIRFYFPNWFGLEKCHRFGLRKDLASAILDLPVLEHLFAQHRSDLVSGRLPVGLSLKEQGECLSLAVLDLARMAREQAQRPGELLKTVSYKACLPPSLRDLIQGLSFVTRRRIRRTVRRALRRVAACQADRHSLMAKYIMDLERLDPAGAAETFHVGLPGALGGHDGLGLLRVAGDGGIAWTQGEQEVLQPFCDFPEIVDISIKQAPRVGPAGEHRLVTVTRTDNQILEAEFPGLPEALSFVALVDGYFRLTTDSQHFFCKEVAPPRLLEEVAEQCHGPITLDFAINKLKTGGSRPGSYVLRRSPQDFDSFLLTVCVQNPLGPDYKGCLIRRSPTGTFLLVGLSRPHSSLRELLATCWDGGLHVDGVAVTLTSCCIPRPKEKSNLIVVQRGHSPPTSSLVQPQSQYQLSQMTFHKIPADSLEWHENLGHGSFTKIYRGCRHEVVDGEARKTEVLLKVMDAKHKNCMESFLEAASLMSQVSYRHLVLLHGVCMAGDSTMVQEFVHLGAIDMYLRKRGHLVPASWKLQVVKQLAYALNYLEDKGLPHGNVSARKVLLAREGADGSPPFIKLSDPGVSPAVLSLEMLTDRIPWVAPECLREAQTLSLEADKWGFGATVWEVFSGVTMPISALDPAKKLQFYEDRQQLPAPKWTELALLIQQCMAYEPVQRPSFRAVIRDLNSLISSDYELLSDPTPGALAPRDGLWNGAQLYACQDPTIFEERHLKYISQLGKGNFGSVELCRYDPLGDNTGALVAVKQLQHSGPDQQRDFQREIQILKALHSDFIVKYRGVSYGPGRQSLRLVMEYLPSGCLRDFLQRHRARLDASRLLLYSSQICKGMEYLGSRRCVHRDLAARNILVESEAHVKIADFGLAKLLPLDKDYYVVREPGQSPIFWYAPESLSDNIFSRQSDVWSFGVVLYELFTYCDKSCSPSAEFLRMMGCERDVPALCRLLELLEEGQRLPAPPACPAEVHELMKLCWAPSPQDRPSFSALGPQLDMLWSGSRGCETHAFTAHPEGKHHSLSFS
The experiment can be described thus: JAK3 Inhibition Assay. Type of experiment: biochemical. Particulars: 1 nM JAK3, 1 μM poly(Glu)4Tyr, 5 μM ATP, 25° C.; read-out: enzyme inhibition data (Ki) JAK3. In a few lines:
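Radiometric ^33P incorporation into poly(Glu)4Tyr (1 μM) by 1 nM human JAK3 at 5 μM ATP, in HEPES pH 7.4 buffer with MgCl2, DTT and BSA. Reaction ran 20 min at 25° C, stopped with TCA, then filtered before scintillation counting.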

On to `C[C@@H](Nc1ncnc(-c2c[nH]c3ncncc23)n1)C(=O)NCC(F)(F)F` [Compound 78, (R)-2-(4-(7H-pyrrolo[2,3-d]pyrimidin-5-yl)-1,3,5-triazin-2-ylamino)-N-(2,2,2-trifluoroethyl)propanamide], for which the values for the Ki on JAK2 and on JAK3 were 500 to 5000 nM and < 500 nM, respectively.
For `C[C@H](Nc1ncnc(-c2c[nH]c3ncncc23)n1)C(=O)NCC(F)(F)F` [Compound 79, (S)-2-(4-(7H-pyrrolo[2,3-d]pyrimidin-5-yl)-1,3,5-triazin-2-ylamino)-N-(2,2,2-trifluoroethyl)propanamide] the same measures were 500 to 5000 nM and < 500 nM.
For `CC[C@@](C)(Nc1ccnc(-c2c[nH]c3ncncc23)n1)C(=O)NCC(F)(F)F` [Compound 80] the same measures were < 500 nM and < 500 nM.
With `CC[C@@](C)(Nc1nc(-c2c[nH]c3ncncc23)ncc1F)C(=O)NCC(F)(F)F` [Compound 81], the Ki at JAK2 and on JAK3 was < 500 nM in each case.
In the case of `O=C(CCNc1ccnc(-c2c[nH]c3ncncc23)n1)NCC(F)(F)F` [Compound 82], the inhibition constant Ki on JAK2 and on JAK3 was < 500 nM each time.
`C[C@@H](Nc1ccnc(-c2c[nH]c3ncncc23)n1)c1ccc(F)cc1` [Compound 83]: the inhibition constant Ki on JAK2 and on JAK3 was < 500 nM in each case.
`C[C@H](Nc1ccnc(-c2c[nH]c3ncncc23)n1)c1ccc(F)cc1` [Compound 84]: the inhibition constant (Ki) at JAK2 and at JAK3 was < 500 nM throughout.
For `C[C@H](c1ccccc1)N(C)c1ccnc(-c2c[nH]c3ncncc23)n1` [Compound 85], the inhibition constant (Ki) on JAK2 and on JAK3 was < 500 nM in each case.
`C[C@@H](c1ccccc1)N(C)c1ccnc(-c2c[nH]c3ncncc23)n1` [Compound 86]: the Ki was 500 to 5000 nM on JAK2 and < 500 nM on JAK3.
As for `CC(C)[C@@](C)(Nc1ccnc(-c2c[nH]c3ncncc23)n1)C(=O)NCC(F)(F)F` [Compound 87], the Ki on JAK2 and at JAK3 was < 500 nM each time.
Take `CC[C@](C)(Nc1ccnc(-c2c[nH]c3ncncc23)n1)C(=O)NCC(F)(F)F` [Compound 88]: the inhibitory constant (Ki) at JAK2 and on JAK3 was < 500 nM throughout.
With `CCC(CC)(Nc1nc(-c2c[nH]c3ncncc23)ncc1F)C(=O)NCC(F)(F)F` [Compound 89], the Ki on JAK2 and at JAK3 was < 500 nM each time.
Regarding `CCC(CC)(Nc1ccnc(-c2c[nH]c3ncncc23)n1)C(=O)NCC(F)(F)F` [Compound 90], the inhibitory constant (Ki) on JAK2 and on JAK3 was < 500 nM throughout.
With `CC[C@@H](Nc1ncnc(-c2c[nH]c3ncncc23)n1)C(=O)NCC(F)(F)F` [Compound 91], the inhibitory constant (Ki) on JAK2 and on JAK3 was < 500 nM each time.
Take `O=C(NCC(F)(F)F)C1(Nc2ncnc(-c3c[nH]c4ncncc34)n2)CCCC1` [Compound 92]: the inhibition constant Ki at JAK2 and at JAK3 was < 500 nM in each case.
In the case of `O=C(NCC(F)(F)F)[C@H]1C[C@H](O)CN1c1nc(-c2c[nH]c3ncncc23)ncc1F` [Compound 93], the inhibitory constant (Ki) on JAK2 was 500 to 5000 nM; at JAK3, < 500 nM.
As for `O=C(NCC(F)(F)F)[C@H]1C[C@H](O)CN1c1ccnc(-c2c[nH]c3ncncc23)n1` [Compound 94], the Ki on JAK2 and on JAK3 was < 500 nM each time.
Take `O=C(NCC(F)(F)F)C1CN(c2nc(-c3c[nH]c4ncncc34)ncc2F)C1` [Compound 95]: the Ki at JAK2 and at JAK3 was > 5000 nM throughout.
On to `CN(c1ccnc(-c2c[nH]c3ncncc23)n1)C1(C(=O)NCC(F)(F)F)CC1` [Compound 96], for which the Ki at JAK2 and at JAK3 was < 500 nM each time.
As for `CN(c1ccnc(-c2c[nH]c3ncncc23)n1)C(C(=O)NCC(F)(F)F)c1ccccc1` (stereo not drawn) [Compound 97], the values for the inhibitory constant (Ki) at JAK2 and on JAK3 were 500 to 5000 nM and < 500 nM, respectively.
For `O=C(NCC(F)(F)F)C1(Nc2ccnc(-c3c[nH]c4ncncc34)n2)CCCC1` [Compound 98] the same measures were < 500 nM and < 500 nM.

The record behind these values is US8580802B2, “Pyrrolo[2,3-D]pyrimidines as inhibitors of Janus kinases” (Vertex Pharmaceuticals Incorporated, priority 2005, dated 2013).
